# Laboratory results reported in patent publication EP1285918A1, “C7 Ester substituted taxanes as antitumor agents” (Florida State University Research Foundation, Inc., priority 2001, dated 2003).
# Read-outs that look alike come from different tables or passages of the source.
# How the values were obtained:
# [1] = test system: SKMES human lung cancer xenograft; conditions: for MDS (n): days until tumor reached 2.0 g; for activity / MDS: SKMES; for MDS: 2.0 g cut-off
# Protocol: Female Nu/Nu mice (6-8 weeks of age; implanted with 1 mm^3 SKMES lung carcinoma fragments in the flank) were sorted into treatment groups of six mice each. […] Treatment was administered as a single bolus on Day 1, and the study was terminated on Day 62.
# (§1) The mean days of survival is the number of days after which a SKMES neoplasm reached a size of 2.0 g and the animal was euthanized. A complete response is obtained if the tumor is not palpable at the end of the study. A partial response is obtained if the tumor shrinks to a size smaller than its size on Day 1 of the study.
# [2] = test system: A375 Human Melanoma Xenograft
# Protocol: Female nu/nu mice (6-8 weeks of age; implanted subcutaneously with 1 mm^3 A375 melanoma fragments in the flank) were sorted into one control and four treatment groups of ten mice each (group mean tumor size of 96-98 mg). […] The study was terminated on Day 60.
# as §1, with “a” for “a SKMES”
# [3] = test system: HCT116 Human Colon Carcinoma Xenograft; conditions: for Mean Score: tumor score 1 to 10, group mean
# [4] = test system: SKMES Human Lung Carcinoma Xenograft; conditions: for MDS (n): days until tumor reached 2.0 g
# Protocol: Antitumor compounds were formulated for oral administration over a wide dose range in a study to investigate the efficacy of this compound against the SKMES human lung cancer xenograft. The antitumor compounds were prepared in the following vehicle: 5% ethanol, 5% Cremophor and 90% isotonic saline.
# Female Nu/Nu mice (6-8 weeks of age; implanted with 1 mm^3 SKMES lung carcinoma fragments in the flank) were sorted into treatment groups of six mice each. SKMES size ranges and group mean SKMES size ranges were 126-448 mg and 238-241 mg, respectively. […] Treatments were administered as a single oral bolus on Day 1, and the study was terminated on Day 60.
# The mean days of survival is the number of days after which a SKMES neoplasm reached a size of 2.0 g and the animal was euthanized. A complete response is obtained if the tumor is not palpable at the end of the study. A partial response is obtained if the tumor shrinks to a size smaller than its size on Day 1 of the study. […]
# HCT116 = assay: In Vitro cytotoxicity measured by the cell colony formation assay; type: cell-based; conditions: Homo sapiens, HCT-116; 72 h drug incubation, colonies counted after 7 days; concentration producing 50% inhibition of colony formation; read-out: IN VITRO ID 50 (nm) HCT116
# [5] = 5.2 mg/kg single IV bolus Day 1, 6 mice/group, study end Day 62
# [6] = 5.2 mg/kg single oral bolus Day 1, 6 mice/group, study end Day 62
# [7] = 10.4 mg/kg single IV bolus Day 1, 6 mice/group, study end Day 62
# [8] = 10.4 mg/kg single oral bolus Day 1, 6 mice/group, study end Day 62
# [9] = 20.8 mg/kg single IV bolus Day 1, 6 mice/group, study end Day 62
# [10] = 20.8 mg/kg single oral bolus Day 1, 6 mice/group, study end Day 62
# [11] = 42 mg/kg single IV bolus Day 1, 6 mice/group, study end Day 62
# [12] = 42 mg/kg single oral bolus Day 1, 6 mice/group, study end Day 62
# [13] = 73 mg/kg single IV bolus Day 1, 6 mice/group, study end Day 62
# [14] = 73 mg/kg single oral bolus Day 1, 6 mice/group, study end Day 62
# [15] = 104 mg/kg single IV bolus Day 1, 6 mice/group, study end Day 62
# [16] = 104 mg/kg single oral bolus Day 1, 6 mice/group, study end Day 62
# [17] = 104 mg/kg single oral bolus, 10 mice/group, study end Day 60
# [18] = oral 36.5 mg/kg on Days 1, 15, 29 and 43 (q14dx3, cumulative 109.5 mg/kg), 10 mice/group, study end Day 60
# [19] = oral 73 mg/kg on Day 1, then 21.9 mg/kg on Days 11, 21, 31 and 41 (cumulative 160.6 mg/kg), 10 mice/group, study end Day 60
# [20] = HCT116, i.v. Day 1 (Taxol 36 mg/kg split dose, 1393 73 mg/kg single dose), 5 mice/group, Day 60
# [21] = HCT116, i.v. Day 1 (Taxol 36 mg/kg split dose, 1393 73 mg/kg single dose)
# [22] = 42 mg/kg single oral bolus Day 1, 6 mice/group, study end Day 60
# [23] = 73 mg/kg single oral bolus Day 1, 6 mice/group, study end Day 60
# [24] = 104 mg/kg single oral bolus Day 1, 6 mice/group, study end Day 60
# [25] = 40 mg/kg single oral bolus Day 1, 6 mice/group, study end Day 62
# [26] = 40 mg/kg single oral bolus, 10 mice/group, study end Day 60
# [27] = HCT116, Taxol i.p. 18 mg/kg qd x 5
# [28] = HCT116, Taxol i.p. 18 mg/kg qd x 5, 5 mice, Day 60
# [29] = 40 mg/kg single oral bolus Day 1, 6 mice/group, study end Day 60
smiles,measurement,setting,value
"CCC(=O)O[C@H]1C[C@H]2OC[C@@]2(OC(C)=O)[C@H]2[C@H](OC(=O)c3ccccc3)[C@]3(O)C[C@H](OC(=O)[C@H](O)[C@@H](NC(=O)OC(C)(C)C)c4ccco4)C(C)=C([C@@H](O)C(=O)[C@]12C)C3(C)C [Compound 1393, 3'-Desphenyl-3'-(2-furyl)-7-propionyl taxotere]",Complete Responses,[1]; [5],0
same,Partial Responses,[1]; [5],0
same,Stable Disease,[1]; [5],0
same,Toxic Deaths,[1]; [5],0
same,MDS (n),[1]; [5],10.5 ± 0.9 (6) days
same,% Total Response,[1]; [6],0%
same,Complete Responses,[1]; [6],0
same,Partial Responses,[1]; [6],0
same,Stable Disease,[1]; [6],0
same,Toxic Deaths,[1]; [6],0
same,MDS (n),[1]; [6],9.2 ± 0.8 (6) days
same,Complete Responses,[1]; [7],0
same,Partial Responses,[1]; [7],0
same,Stable Disease,[1]; [7],0
same,Toxic Deaths,[1]; [7],0
same,MDS (n),[1]; [7],16.3 ± 1.3 (6) days
same,% Total Response,[1]; [8],0%
same,Complete Responses,[1]; [8],0
same,Partial Responses,[1]; [8],0
same,Stable Disease,[1]; [8],0
same,Toxic Deaths,[1]; [8],0
same,MDS (n),[1]; [8],9.1 ± 0.7 (6) days
same,% Total Response,[1]; [9],0%
same,Complete Responses,[1]; [9],0
same,Partial Responses,[1]; [9],0
same,Stable Disease,[1]; [9],0
same,Toxic Deaths,[1]; [9],0
same,MDS (n),[1]; [9],23.2 ± 1.8 (6) days
same,% Total Response,[1]; [10],0%
same,Complete Responses,[1]; [10],0
same,Partial Responses,[1]; [10],0
same,Stable Disease,[1]; [10],0
same,Toxic Deaths,[1]; [10],0
same,MDS (n),[1]; [10],9.6 ±0.6 (6) days
same,% Total Response,[1]; [11],66.7%
same,Complete Responses,[1]; [11],3
same,Partial Responses,[1]; [11],1
same,Stable Disease,[1]; [11],0
same,Toxic Deaths,[1]; [11],0
same,% Total Response,[1]; [12],0%
same,Complete Responses,[1]; [12],0
same,Partial Responses,[1]; [12],0
same,Stable Disease,[1]; [12],0
same,Toxic Deaths,[1]; [12],0
same,MDS (n),[1]; [12],14.5 ± 1.1 (6) days
same,% Total Response,[1]; [13],100%
same,Complete Responses,[1]; [13],3
same,Partial Responses,[1]; [13],3
same,Stable Disease,[1]; [13],0
same,Toxic Deaths,[1]; [13],0
same,% Total Response,[1]; [14],40%
same,Complete Responses,[1]; [14],2
same,Partial Responses,[1]; [14],0
same,Stable Disease,[1]; [14],0
same,Toxic Deaths,[1]; [14],1
same,MDS (n),[1]; [14],36.3 ±1.5 (3) days
same,% Total Response,[1]; [15],100%
same,Complete Responses,[1]; [15],5
same,Partial Responses,[1]; [15],1
same,Stable Disease,[1]; [15],0
same,Toxic Deaths,[1]; [15],0
same,% Total Response,[1]; [16],83.3%
same,Complete Responses,[1]; [16],4
same,Partial Responses,[1]; [16],1
same,Stable Disease,[1]; [16],0
same,Toxic Deaths,[1]; [16],0
same,activity,"[1]; 1393 orally, lower doses (20.8, 10.4, 5.2 mg/kg)",not active
same,MDS,[1]; 1393 single IV bolus 10.4 mg/kg (Group 7),16.3 days
same,MDS,[1]; 1393 single IV bolus 20.8 mg/kg (Group 6),23.2 days
same,Complete Response,[2]; [17],9
same,Partial Response,[2]; [17],0
same,Stable Disease,[2]; [17],0
same,Toxic Deaths,[2]; [17],0
same,Complete Response,[2]; [18],0
same,Partial Response,[2]; [18],1
same,Stable Disease,[2]; [18],3
same,Toxic Deaths,[2]; [18],0
same,Complete Response,[2]; [19],8
same,Partial Response,[2]; [19],1
same,Stable Disease,[2]; [19],0
same,Toxic Deaths,[2]; [19],1
same,Partial Response,[3]; [20],4
same,Stable Disease,[3]; [20],0
same,Mean Score,[3]; [21],9.2 ± 0.2
same,Toxic Deaths,"[4]; 5.2 mg/kg single oral bolus Day 1, 6 mice/group, study end Day 60",0
same,Toxic Deaths,"[4]; 10.4 mg/kg single oral bolus Day 1, 6 mice/group, study end Day 60",0
same,Toxic Deaths,"[4]; 20.8 mg/kg single oral bolus Day 1, 6 mice/group, study end Day 60",0
same,Toxic Deaths,[4]; [22],0
same,MDS (n),[4]; [22],23.2 ± 4.8 (4) days
same,% Total Response,[4]; [23],83.3%
same,Toxic Deaths,[4]; [23],0
same,% Total Response,[4]; [24],83.3%
same,Toxic Deaths,[4]; [24],0
same,MDS,"[4]; SKMES, 1393 single oral bolus 42 mg/kg (Group 7), 2.0 g cut-off",23.2 days
"CC(=O)O[C@H]1C(=O)[C@@]2(C)[C@H]([C@H](OC(=O)c3ccccc3)[C@]3(O)C[C@H](OC(=O)[C@H](O)[C@@H](NC(=O)c4ccccc4)c4ccccc4)C(C)=C1C3(C)C)[C@]1(OC(C)=O)CO[C@@H]1C[C@@H]2O [Taxol, paclitaxel, reference compound]",% Total Response,[1]; [25],0%
same,Complete Responses,[1]; [25],0
same,Partial Responses,[1]; [25],0
same,Stable Disease,[1]; [25],0
same,Survivors,[1]; [25],0
same,Toxic Deaths,[1]; [25],1
same,MDS (n),[1]; [25],9.2±1.4 (5) days
same,activity,[1]; Taxol orally 40 mg/kg single bolus (Group 10),not active
same,Complete Response,[2]; [26],0
same,Partial Response,[2]; [26],1
same,Stable Disease,[2]; [26],1
same,Survivors,[2]; [26],2
same,Toxic Deaths,[2]; [26],0
same,MDS (n),"[2]; 40 mg/kg single oral bolus, 10 mice/group, study end Day 60, days until tumor reached 2.0 g",23.7 ± 3.0 (8) days
same,activity,"[2]; A375, paclitaxel 40 mg/kg single oral bolus (Group 2)",not active
same,IC50,HCT116,2.1 nM
same,increase in survival compared to control Group 1,"[3]; HCT116, Taxol 36 mg/kg i.v. qd x 1",24%
same,survival extension compared to Group 1 control mice,[3]; [27],84%
same,Complete Response,[3]; [28],0
same,Stable Disease,[3]; [28],0
same,Survivors,[3]; [28],1
same,Toxic Deaths,[3]; [28],0
same,Mean Score,[3]; [27],3.6 ± 1.4
same,MDS (n),"[3]; HCT116, i.v. Day 1 (Taxol 36 mg/kg split dose, 1393 73 mg/kg single dose), 5 mice/group, 2.0 g cut-off, Day 60",27.5 ± 1.7 (4) days
same,Complete Response,[3]; [20],0
same,Partial Response,[3]; [20],0
same,Survivors,[3]; [20],1
same,Toxic Deaths,[3]; [20],0
same,Mean Score,[3]; [21],2.2 ± 0.5
same,tolerability,"[3]; mouse, in vivo, iv, 73 mg/kg",well-tolerated
same,% Total Response,[4]; [29],0%
same,Complete Responses,[4]; [29],0
same,Partial Responses,[4]; [29],0
same,Stable Disease,[4]; [29],0
same,Survivors,[4]; [29],0
same,Toxic Deaths,[4]; [29],0
same,MDS (n),[4]; [29],13.2 ± 1.4 (6) days
